Assay results: US11478515B2, “Compositions comprising probiotic and prebiotic components and mineral salts, with lactoferrin” (GlaxoSmithKline Consumer Healthcare S.R.L., priority 2009, dated 2022)
Where a SMILES comes first, the peptide text is derived from it. Bridges are numbered along the chain shown (N, C = ends). [ ]: non-standard residue; d: D form. The star is where a group is joined. Ileψ(thiazoline)Cys = CC[C@H](C)[C@H](N)C1=N[C@H](C(=O)*)CS1; dOrn = NCCC[C@@H](N)C(=O)O

What follows are compounds tested on Bifidobacterium longum R175 (assay: antibiotic resistance profile). Conditions: dose of each agent.
Type: cell-based
For `CC1(C)S[C@@H]2[C@H](NC(=O)[C@H](N)c3ccccc3)C(=O)N2[C@H]1C(=O)O` [Ampicillin], the “outcome (antibiotic resistance profile)” value was “susceptible”.
For `CC[C@H](C)[C@H](N)C1=N[C@H](C(=O)N[C@@H](CC(C)C)C(=O)N[C@H](CCC(=O)O)C(=O)N[C@H](C(=O)N[C@H]2CCCCNC(=O)[C@H](CC(N)=O)NC(=O)[C@@H](CC(=O)O)NC(=O)[C@H](Cc3cnc[nH]3)NC(=O)[C@@H](Cc3ccccc3)NC(=O)[C@H]([C@@H](C)CC)NC(=O)[C@@H](CCCN)NC2=O)[C@@H](C)CC)CS1` [Bacitracin] ({Ileψ(thiazoline)Cys}-L[dE]IK[dOrn]I[dF]H[dD]N; lactam 4-C), the “outcome (antibiotic resistance profile)” value was “susceptible”.
For `CO[C@H]1/C=C/O[C@@]2(C)Oc3c(C)c(O)c4c(O)c(c(/C=N/N5CCN(C)CC5)c(O)c4c3C2=O)NC(=O)/C(C)=C\C=C\[C@H](C)[C@H](O)[C@@H](C)[C@@H](O)[C@@H](C)[C@H](OC(C)=O)[C@@H]1C` [Rifampin], the “outcome (antibiotic resistance profile)” value was “susceptible”.
In the case of `CN[C@H](CC(C)C)C(=O)N[C@H]1C(=O)N[C@@H](CC(N)=O)C(=O)N[C@H]2C(=O)N[C@H]3C(=O)N[C@H](C(=O)N[C@H](C(=O)O)c4cc(O)cc(O)c4-c4cc3ccc4O)[C@H](O)c3ccc(c(Cl)c3)Oc3cc2cc(c3O[C@@H]2O[C@H](CO)[C@@H](O)[C@H](O)[C@H]2O[C@H]2C[C@](C)(N)[C@H](O)[C@H](C)O2)Oc2ccc(cc2Cl)[C@H]1O` [Vancomycin], the “outcome (antibiotic resistance profile)” value is reported as “susceptible”.
In the case of `CC(=O)OCC1=C(C(=O)O)N2C(=O)[C@@H](NC(=O)Cc3cccs3)[C@H]2SC1` [cephalothin], the “outcome (antibiotic resistance profile)” value is reported as “susceptible”.
For `O=C(N[C@H](CO)[C@H](O)c1ccc([N+](=O)[O-])cc1)C(Cl)Cl` [chloramphenicol], the “outcome (antibiotic resistance profile)” value was “susceptible”.
With `CC[C@H]1OC(=O)[C@H](C)[C@@H](O[C@H]2C[C@@](C)(OC)[C@@H](O)[C@H](C)O2)[C@H](C)[C@@H](O[C@@H]2O[C@H](C)C[C@H](N(C)C)[C@H]2O)[C@](C)(O)C[C@@H](C)C(=O)[C@H](C)[C@@H](O)[C@]1(C)O` [erythromycin] the “outcome (antibiotic resistance profile)” value was “susceptible”.
In the case of `CCC[C@@H]1C[C@@H](C(=O)N[C@@H]([C@H]2O[C@H](SC)[C@H](O)[C@@H](O)[C@H]2O)[C@@H](C)O)N(C)C1` [lincomycin], the “outcome (antibiotic resistance profile)” value is reported as “intermediate”.
`CO[C@@H]1[C@@H](OC(N)=O)[C@@H](O)[C@H](Oc2ccc3c(O)c(NC(=O)c4ccc(O)c(CC=C(C)C)c4)c(=O)oc3c2C)OC1(C)C` [novobiocin] was tested, and the “outcome (antibiotic resistance profile)” value was “susceptible”.
With `CC1(C)S[C@@H]2[C@H](NC(=O)Cc3ccccc3)C(=O)N2[C@H]1C(=O)O` [penicillin G] the “outcome (antibiotic resistance profile)” value was “susceptible”.
For `[H]/N=C(/N)N[C@H]1[C@H](O)[C@@H](O)[C@H](O[C@@H]2O[C@@H](C)[C@](O)(C=O)[C@H]2O[C@@H]2O[C@@H](CO)[C@H](O)[C@@H](O)[C@@H]2NC)[C@@H](N/C(N)=N\[H])[C@@H]1O` [streptomycin], the “outcome (antibiotic resistance profile)” value was “resistant”.
In the case of `Cc1noc(NS(=O)(=O)c2ccc(N)cc2)c1C` [sulfisoxazole], the “outcome (antibiotic resistance profile)” value is reported as “resistant”.
For Neomycin, the “outcome (antibiotic resistance profile)” value was “resistant”.
For Polymyxin B, the “outcome (antibiotic resistance profile)” value was “resistant”.
In the case of gentamycin, the “outcome (antibiotic resistance profile)” value is reported as “resistant”.
